Legend:
[1] = tested on: Balb/c mice; assay: Measurement of IgG1/IgG2 ratio in blood samples as an index of Th2/Th1 balance (Test Example 2); type: in vivo; conditions: for IgG1/IgG2 ratio (given as average of the absorbance): mouse, in vivo
Method: The blood sample collected on the 25th day from the start of the test was provided, and the IgG1/IgG2 ratio was measured as an index of Th2/Th1 balance.
Further, a blood sample obtained by inoculating only the antigenic substance by intraperitoneal administration instead of the dermal administration at the same time as in the administration schedule in Test Example 1 was used as a control blood sample for comparison.
The IgG1/IgG2 ratio was measured with a Mouse Monoclonal Antibody Isotyping Reagents kit (SIGMA).
Specifically, a mouse serum was diluted with PBS by a factor of 1000 to give a solution. The solution (100 μL) was added to wells in a plate and was incubated at 37° C. for one hr. Next, each well was washed three times with PBS, and 100 μL of isotyping specific reagents (reagents containing IgA, IgG1, IgG2a, and IgG2b), which had been diluted by a factor of 1000, were added to the wells followed by incubation at room temperature for 30 min. Each well was washed three times with PBST. A peroxidase labelled mouse IgG (manufactured by SIGMA) (100 μL), which had been diluted with PBST by a factor of 5000, was added to the wells, and the wells were allowed to stand at room temperature for one hr. The wells were then washed three times with PBST. Thereafter, ABTS was added as a chromophoric substrate, and incubation was carried out for 5 to 10 min. For each well, the absorbance was measured with Multiscan Ascent (manufactured by Thermo Labsystems, wave length 405 nm).

[2] = tested on: Balb/c mice; assay: Production amount of antibody by ELISA after dermal administration of antigenic substance with immunoadjuvant (Test Example 1); type: in vivo

Row | Molecule | Th2/Th1 balance (type of immunity induced) ([1]; from IgG1/IgG2 ratio, compared with antigenic substance only intraperitoneally or with cholera toxin) | IgG1/IgG2 ratio (given as average of the absorbance) [1] | average±standard error of the absorbance (amount of antibody in mouse serum by ELISA) ([2]; serum sample on the 25th day from start of test, dermal administration by tape preparation, serum diluted 1000-fold, wavelength 405 nm, n=4) | average±standard error of the absorbance (amount of antibody in mouse serum by ELISA) ([2]; mouse, in vivo)
1 | Nc1ncnc2c1ncn2[C@@H]1O[C@H](COP(=O)(O)OP(=O)(O)OP(=O)(O)O)[C@@H](O)[C@H]1O [ATP, adenosine triphosphate] | Th2 cells are predominant | 2.28 | 0.670±0.033 | –
2 | cholera toxin [reference compound] | – | 1.46 | – | 0.551±0.202
